Measured values published in US6989263B1, “Method for identifying and using compounds that inactivate HIV-1 and other retroviruses by attacking highly conserved zinc fingers in the viral nucleocapsid protein” (The United States of America as represented by the …, priority 1994, dated 2006).
Entries after “also recorded” stand apart in the source; their conditions may differ. Like-named read-outs stand apart in the source and are kept apart here.

How the values were obtained:
p7NC = biological target: T1, p7NC (Human immunodeficiency virus type 1 group M subtype B, UniProt P05888); test: HPLC analysis of reaction products of purified p7NC with reagent; assay type: biochemical, HIV-1; design: key to Protein (HPLC): reaction products / Protein (HPLC): reaction rate: formation of non-native, intra-protein disulfide links (designated “Disulfides”); some of the reagents form adducts with the cysteine residues as well (designated “Adducts”); slow: “Slow” reactions are those in which greater than 10% of the p7NC protein remained in its native form after the 10 minute incubation with reagent; very slow: “Very slow” reactions are those in which greater than 50% of the p7NC protein remained in its native form after the 10 minute incubation with reagent; fast: “Fast” reactions result in complete transformation of the p7NC protein to non-native conformations during the 10 minute incubation period; settings: for Protein (HPLC): reaction products: 63 μM p7NC, 6 reagent : 1 protein, 10 minutes
T1 construct: The NC protein of HIV-1 (MN) p7NC was expressed in E. coli; made in house; host or cells: E. coli (vector pMAL-c)
Excerpt: Highly purified retroviral NC proteins can be produced by expression from vectors generated through recombinant DNA technology. These proteins when reconstituted with zinc (see, Summers, et al., Protein Science 1:563–567 (1992) for methods), provide the source of the NC proteins containing the zinc fingers that are the targets for attack by the compounds of this invention. When the zinc fingers in NC proteins react with identified compounds, the reaction produces a covalent change in the NC protein, and the modified protein can be separated from the unreacted protein by, for example, reversed phase HPLC.
Samples of p7NC and apo-p7 were reacted with varying amounts of cupric chloride and resulting products separated by HPLC. The reactions were carried out using 44.3 μM protein (p7NC or apo-p7) in 0.1 M Tris-HCl, pH 7.4, for 6 minutes at room temperature with varying concentrations of CuCl2 to achieve the indicated ratios of reactants, in a final volume of 0.7 ml. Chromatography was carried out on the resulting products at pH 2 (0.05% trifluoroacetic acid) on μBondapak™ C-18 (3.9×300 mm) at 1.0 ml/minute using an acetonitrile gradient (0–17%, 20 ml; 17–20%, 60 ml; 20–60%, 10 ml). Elution positions of unreacted protein (p7NC or apo-p7) are indicated as apo-p7.
A two-fold excess of NOBA was reacted with p7NC, and the products were separated by HPLC (FIG. 10) as described above for Cu^+2 and p7NC. Elution positions for the reactants (NOBA and unreacted p7NC) and products, reacted p7NC, NOBA, HABA and AzoxyBA are indicated and an elution profile is included in FIG. 10. NOBA and AzoxyBA were supplied by Octamer, Inc. (Mill Valley, Calif.) and used as HPLC standards.
The disulfide reagent of choice (each available from the Aldrich Chemical Company (Milwaukee, Wis.)) was incubated for 10 minutes with purified p7NC protein (63 μM) at a ratio of 6 molecules of reagent to 1 molecule of NC protein (there are 6 cysteine thiols per NC protein). The formation of non-native protein conformations was monitored by HPLC as described above. […] Generally, the inactivation proceeds by formation of non-native, intra-protein disulfide links (designated “Disulfides”), but some of the reagents form adducts with the cysteine residues as well (designated “Adducts”). “Slow” reactions are those in which greater than 10% of the p7NC protein remained in its native form after the 10 minute incubation with reagent. “Very slow” reactions are those in which greater than 50% of the p7NC protein remained in its native form after the 10 minute incubation with reagent. “Fast” reactions result in complete transformation of the p7NC protein to non-native conformations during the 10 minute incubation period.

HIV-1 [1] = test: microbe, parasite or virus in culture; settings: Human immunodeficiency virus 1, read-out: TCID (Virus): concentration of reagent required to inactivate half of a standardized number of HIV-1 virus particles
Procedure: (§1) Concomitantly, the drug treated virions are tested for activity. The virions are suspended in media (rather than solubilized) and added to target cells. The cultures are then examined to determine whether the virions are still active.

[2] = biological target: T2, p11 Nucleocapsid Protein (p11NC) (Equine infectious anemia virus, UniProt P69732); test: Cross-linking of p11NC in intact EIAV particles (gel-mobility shift); assay type: biochemical; settings: intact EIAV (50 μM), 4× the HIV assay concentrations
T2 construct: a variety of disulfide reagents cross-link the p11NC protein in intact viral particles; endogenous in cells; host or cells: intact EIAV particles
Excerpt: Essentially the same strategy was employed to analyze the ability of the various disulfide reagents to cross-link the p11 Nucleocapsid Protein (p11NC) in intact Equine Infectious Anemia Virus (EIAV) particles. The advantages of working with EIAV include the fact that it is not a human pathogen, and that the p11NC protein can be visualized by simple coomassie-blue staining after performing the gel-mobility shift assay (rather than by western blotting as for HIV) described above. The reaction conditions were essentially the same for the EIAV assays as for the HIV assays described above, except that the concentration of virus and disulfide reagent was 4× the concentrations used in the HIV assay above. The second number in each cell in the X-link column in Table 2 represents the time required to cross-link one-half of the p11NC protein in the intact viral particles. […] The bottom number in each cell of the X-link column, unless otherwise indicated, represents the concentration of EIAV used in the assay. Blank cells throughout Table 2 indicate that the compound has yet to be tested for the specified property.

[3] = cited from earlier work
[4] = biological target: T3, HIV NC protein in intact virus (Human immunodeficiency virus type 1 group M subtype B, UniProt P05888); test: Cross-linking of NC protein in intact HIV (non-reducing gel-mobility shift, western blot); assay type: biochemical, HIV-1; settings: for X-link T-½ (min), HIV NC protein (top number): intact HIV generally 12.5 μM, reagent generally 25 μM
T3 construct: endogenous in cells; host or cells: intact HIV virions
Excerpt: Purified concentrated retrovirus and antisera against the purified NC protein of the virus can be used to test the ability of a specific compound to penetrate the virus and react with the NC protein by forming disulfide complexes in the core of the virus. The compound is mixed with the whole retrovirus under reaction conditions appropriate for the compound. The virus is then removed from the reagent by centrifugation and disrupted in, e.g, standard SDS-PAGE sample buffer with (reduced) and without (non-reduced) 2-mercaptoethanol. The viral proteins are then separated by standard SDS-PAGE and the sample examined for the presence or absence of the monomeric NC protein in the non-reduced sample. Depending upon the virus used in the experiment and the conditions of electrophoresis, the NC protein can be visualized by protein staining methods, or by immuno-blot (e.g., western) methods. Compounds which react with the NC protein by attacking the zinc finger complexes and forming disulfide cross-linked products (i.e., which generate multimers in the mobility shift assay) inactivate the virus. Thus, compounds of interest (i.e., those which cause cross-linking) reduced the amount of monomeric NC protein detected.
In order to determine whether HIV-1MN was inactivated by NOBA, the virus was incubated with varying concentrations of NOBA (3.0, 0.3, 0.03 and 0 mM) as in Table 1. The reaction products were pelleted by centrifugation, and separated by SDS-PAGE under reducing (2% 2-mercaptoethanol, panel A), or non-reducing conditions (panel B). p7NC was visualized by immunoblot analysis using monospecific rabbit antisera to the purified NC proteins as per L. E. Henderson et al., J. Virol. 66:1856 (1992).
Disulfide reagents were further tested for their ability to disrupt NC structure in the virus, based on their ability to cause inter-NC cysteine disulfide bonds (i.e., cross-linking) in the intact virus. The formation of inter-NC cysteine disulfides creates NC multimers, which migrate through a non-reducing gel at a different rate than NC monomers, as described above. Intact HIV virus (generally 12.5 μM) was exposed to the specified reagent (generally 25 μM) for varying lengths of time and electrophoresed through a non-reducing SDS-polyacrylamide gel. HIV NC monomers and multimers were visualized by western blot analysis as described above in Example 3. The approximate time required to cross-link one-half of the NC proteins in the virus at the specified reaction conditions was then determined. […] The top number in the cells of the X-link column in Table 2 refers to the approximate time in minutes required for one-half of the HIV NC proteins to become cross-linked.

[5] = tested on: SSFV (spleen focus forming virus); test: Survival of mice infected with SSFV; assay type: in vivo; settings: oral doses, versus infected untreated mice
Excerpt: Mice susceptible to the retrovirus SSFV (spleen focus forming virus) when injected with the virus die within 35–40 days as a result of virally-mediated transformation of cells of the spleen.

HIV-1 [6] = settings: PCR and viral inactivation assays
Procedure: as §1

T2 sequence (P69732 360-435): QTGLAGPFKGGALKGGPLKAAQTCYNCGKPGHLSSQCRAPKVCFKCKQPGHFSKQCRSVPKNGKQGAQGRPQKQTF

Row | SMILES | Protein (HPLC): reaction products (p7NC) | IC50 (HIV-1 [1]) [µM] | X-link T-½ (min), EIAV p11NC (second number) [2] [min] | Toxicity (LD-50, mouse) ([3]; oral) [mg/kg] | cross-linking of the HIV-1 NC protein in intact virus (gel-mobility shift), in words [4] | X-link T-½ (min), HIV NC protein (top number) [4] | reaction with purified p7NC (HPLC), in words (p7NC) | Toxicity (LD-50, mouse) ([3]; IP) [mg/kg] | survival after SSFV infection [5] | inactivation of HIV-1 virus / infectivity, in words (HIV-1 [6]) | inactivation of HIV-1 virus / infectivity, in words (HIV-1 [6]; listed as Tetraethylthiuram disulfide)
1 | CN(C)c1ccc(SSc2ccc(N(C)C)cc2)cc1 [4-(dimethylamino)phenyl disulfide] | (negative) | 17.5 |  |  |  |  |  |  |  |  | 
2 | O=C(SSC(=O)c1ccccc1)c1ccccc1 [Benzoyl Disulfide] | Disulfides; also recorded: Adducts | 68 |  |  |  |  |  |  |  |  | 
3 | S=C(SSC(=S)N1CCCCC1)N1CCCCC1 [Dicyclopentamethylenethiuram Disulfide] | Disulfides | 4 | ~10 | 2870 | caused a cross-linking of the HIV-1 NC protein | <<15 min |  |  |  |  | 
4 | CCN(CC)C(=S)SSC(=S)N(CC)CC [Tetraethylthiuram Disulfide, reference compound] | Disulfides | 66 | ~15 | 1980 |  | ~15 min | reacts with p7NC to form oxidized p7 (disulfides) | 75 | survived SSFV infection significantly longer | inactivates the virus | inactivate HIV-1 virus
